Like-named read-outs stand apart in the source and are kept apart here.
Legend:
[1] = molecular target: T1, PYL5 (Arabidopsis thaliana, UniProt Q9FLB1); assay: receptor-mediated PP2C (HAB1) inhibition in vitro assay; assay type: biochemical; settings: for remaining activity at 25 µM: compound at 25 μM, control without agonist = 100%; for PYL5 agonist potency and selectivity: compounds with cyclopropyl rings at alpha carbon; for remaining activity at 50 µM: 50 uM of the test compound
T1 construct: 6X-His; made in house; host or cells: E. coli BL21[DE3]pLysS
T1 sequence (Q9FLB1 1-203): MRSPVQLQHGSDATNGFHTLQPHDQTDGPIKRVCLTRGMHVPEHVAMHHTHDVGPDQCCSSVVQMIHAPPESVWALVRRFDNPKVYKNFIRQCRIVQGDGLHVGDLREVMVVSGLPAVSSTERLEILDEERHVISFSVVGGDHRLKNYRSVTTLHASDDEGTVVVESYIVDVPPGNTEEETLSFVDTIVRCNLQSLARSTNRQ
T1 sequence (Q9CAJ0 23-511 partner): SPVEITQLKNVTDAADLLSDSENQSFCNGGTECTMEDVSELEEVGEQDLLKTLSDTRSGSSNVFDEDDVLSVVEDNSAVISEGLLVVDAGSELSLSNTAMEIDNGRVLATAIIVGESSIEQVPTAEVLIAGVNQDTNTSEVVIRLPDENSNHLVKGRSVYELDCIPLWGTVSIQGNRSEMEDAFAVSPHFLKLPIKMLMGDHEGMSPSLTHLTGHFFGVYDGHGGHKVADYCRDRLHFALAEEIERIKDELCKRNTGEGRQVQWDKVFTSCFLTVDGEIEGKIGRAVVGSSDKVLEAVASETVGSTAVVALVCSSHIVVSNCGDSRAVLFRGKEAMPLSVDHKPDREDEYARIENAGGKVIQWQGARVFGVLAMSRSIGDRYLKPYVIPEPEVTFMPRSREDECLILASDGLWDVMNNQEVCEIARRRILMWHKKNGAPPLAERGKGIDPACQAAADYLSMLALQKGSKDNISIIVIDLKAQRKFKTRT
How it was run: (§1)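 Fluorogenic readout: 4-methylumbelliferyl-phosphate hydrolysis by 50 nM GST-HAB1 plus 2:1 His-receptor; Tris-OAc pH 7.9, NaCl, 1 mM MnCl2, β-ME. Compounds at 25 μM or 50 uM single dose; IC50 from dose curves for selected compounds.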

[2] = molecular target: T2, PYL6 (Arabidopsis thaliana, UniProt Q8S8E3); assay: as above; assay type: biochemical; settings: for remaining activity at 50 µM: 50 uM of the test compound
T2 construct: 6X-His; made in house; host or cells: E. coli BL21[DE3]pLysS
T2 sequence (Q8S8E3 1-215): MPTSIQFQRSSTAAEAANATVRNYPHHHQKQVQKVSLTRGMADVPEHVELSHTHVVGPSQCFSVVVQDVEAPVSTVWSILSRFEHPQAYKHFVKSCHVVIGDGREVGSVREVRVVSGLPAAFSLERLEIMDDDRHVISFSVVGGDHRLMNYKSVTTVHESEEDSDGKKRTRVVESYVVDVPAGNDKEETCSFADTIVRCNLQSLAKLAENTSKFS
T2 sequence (Q9CAJ0 23-511 partner): T1 sequence (Q9CAJ0 23-511 partner)
How it was run: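 Compounds, tested at 25 μM or 50 uM with ABA at 10 uM, were incubated with recombinant receptor and 50 nM GST-HAB1 (2:1 ratio) in MnCl2-containing Tris-OAc buffer, pH 7.9. Phosphatase activity was followed by 4-methylumbelliferyl-phosphate fluorescence.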

[3] = molecular target: T3, PYL8 (Arabidopsis thaliana, UniProt Q9FGM1); assay: as above; assay type: biochemical; settings: for remaining activity at 25 µM: compound at 25 μM, control without agonist = 100%; for remaining activity at 50 µM: 50 uM of the test compound
T3 construct: 6X-His; made in house; host or cells: E. coli BL21[DE3]pLysS
T3 sequence (Q9FGM1 1-188): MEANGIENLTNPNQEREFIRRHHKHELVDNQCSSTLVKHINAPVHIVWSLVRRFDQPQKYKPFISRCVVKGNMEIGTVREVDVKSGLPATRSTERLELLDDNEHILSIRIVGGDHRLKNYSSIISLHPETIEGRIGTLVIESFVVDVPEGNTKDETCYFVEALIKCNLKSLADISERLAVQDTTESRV
T3 sequence (Q9CAJ0 23-511 partner): T1 sequence (Q9CAJ0 23-511 partner)
How it was run: as §1

[4] = system: Arabidopsis seed germination and hypocotyl growth; assay: Arabidopsis seed germination and hypocotyl growth; assay type: in vivo; settings: for minimal effective concentration: Arabidopsis thaliana; for Hypocotyl Growth Inhibition / Germination Inhibition: Germination Inhibition II, tested at 10 and 50 uM; for Hypocotyl Growth Inhibition: lowest concentration that inhibited hypocotyl growth in wells where seeds germinated; for Germination Inhibition: lowest of the two concentrations that inhibited
How it was run: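 Wild-type seeds germinated on ½× Murashige and Skoog medium with compound at 10 and 50 uM, or in a later series at 1, 5, 10, 25 and 50 uM. Reported value is the lowest tested concentration that inhibited germination or hypocotyl growth in wells where seeds germinated.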

[5] = Table VII, read-out: PP2C Dose Curves PYL5 (IC50)
[6] = Table VII, read-out: PP2C Dose Curves PYL6 (IC50)
[7] = Table VII, read-out: PP2C Dose Curves PYL8 (IC50)
[8] = Table VIII, tested at 10 or 50 μM, ABA at 1 μM, lowest inhibiting concentration, − = none, read-out: Germination Inhibition
[9] = Table VIII, tested at 10 or 50 μM, lowest inhibiting concentration, − = none, read-out: Hypocotyl Growth Inhibition
[10] = Table XII-B, calculated from dose curves, read-out: PP2C Activity (IC50 in uM) PYL5
[11] = Table XII-B, calculated from dose curves, read-out: PP2C Activity (IC50 in uM) PYL6
[12] = Table XII-B, calculated from dose curves, read-out: PP2C Activity (IC50 in uM) PYL8

IC50 [1, 5] [µM] | remaining activity at 25 µM [1] [%] | IC50 [2, 6] [µM] | IC50 [3, 7] [µM] | remaining activity at 25 µM [3] [%] | Structure (SMILES) | minimal effective concentration [4, 8] [µM] | minimal effective concentration [4, 9] [µM] | Hypocotyl Growth Inhibition ([4]; − = none) [µM] | Germination Inhibition ([4]; − = none) [µM] | other results
> 50 | 21 | > 50 | 26.3 | 52 | CC(C)(C(=O)NS(=O)(=O)Cc1ccc(C#N)cc1)c1ccc(Cl)cc1 [Compound 6] | 50 | 10 | 10 | 50 | 
10.7 | 33 | > 50 | 40 | 54 | CC(C)(C(=O)NS(=O)(=O)Cc1ccc(C#N)cc1)c1ccc(Cl)c(Cl)c1 [Compound 7] | 50 | 10 | 10 | 50 | 
11.1 | 37 | 18.9 | 4.45 | 32 | CC(C)(C(=O)NS(=O)(=O)Cc1ccc(C#N)cc1)c1ccc(F)cc1 [Compound 13] | 10 | 10 |  | 10 | minimal effective concentration ([4]; Germination Effects III, tested at 1, 5, 10, 25 and 50 uM, lowest concentration inhibiting hypocotyl growth, — = none, read-out: Growth Inhibition): 5 µM; minimal effective concentration ([4]; Germination Effects III, tested at 1, 5, 10, 25 and 50 uM, lowest inhibiting concentration, — = none, read-out: Germination Inhibition): 10 µM
1.95 | 12 | 12.6 | 18.6 | 52 | CC(C)(C(=O)NS(=O)(=O)Cc1ccc(C#N)cc1)c1cccc(C#N)c1 [Compound 18] |  |  |  |  | 
39.6 |  | > 50 | 48.9 |  | CC(C)(C(=O)NS(=O)(=O)Cc1ccc(C#N)cc1)c1ccccc1 [Compound 23] | 50 | 10 | 10 | 50 | 
 | 102 |  | 12.6 | 37 | N#Cc1ccc(CS(=O)(=O)NC(=O)C2(c3ccccc3F)CCCC2)cc1 [Compound 25] | 50 | 10 | 10 | 50 | 
 | 105 |  | 11.5 | 33 | N#Cc1ccc(CS(=O)(=O)NC(=O)C2(c3cccc(F)c3)CCCC2)cc1 [Compound 26] | 50 | 10 | 10 | 50 | 
> 50 | 90 | > 50 | 3.36 | 28 | N#Cc1ccc(CS(=O)(=O)NC(=O)C2(c3ccccc3)CCC2)cc1 [Compound 29] | 50 | 10 | 10 | 50 | 
 | 95 |  | 22.7 | 41 | Cc1cccc(C2(C(=O)NS(=O)(=O)Cc3ccc(C#N)cc3)CCCC2)c1 [Compound 43] | 50 | 10 | 10 | 50 | 

Second part, the compound before the results:

Structure (SMILES) | IC50 [1, 5] [µM] | remaining activity at 25 µM [1] [%] | IC50 [2, 6] [µM] | IC50 [3, 7] [µM] | remaining activity at 25 µM [3] [%] | minimal effective concentration [4, 8] [µM] | minimal effective concentration [4, 9] [µM] | Hypocotyl Growth Inhibition ([4]; − = none) [µM] | Germination Inhibition ([4]; − = none) [µM] | other results
CC1=CC(=O)CC(C)(C)[C@@]1(O)/C=C/C(C)=C\C(=O)O [ABA, Abscisic acid, reference compound] |  |  |  |  |  |  |  |  |  | PP2C Activity PYL5 ([1]; ABA (10 μM)): 4.9; PP2C Activity PYL6 ([2]; ABA (10 μM)): 10.9; PP2C Activity PYL8 ([3]; ABA (10 μM)): 7.0
CC(C)(C(=O)NS(=O)(=O)Cc1ccc([N+](=O)[O-])cc1)c1ccccc1 [Compound 3] | 29.5 | 47 | 45.5 | 8.58 | 35 | 50 | 10 | 10 | 50 | 
CCC(CC)(C(=O)NS(=O)(=O)Cc1ccc([N+](=O)[O-])cc1)c1ccccc1 [Compound 19] | > 50 | 85 | 57.1 | 9.65 | 36 | 10 |  |  | 10 | 
N#Cc1ccc(CS(=O)(=O)NC(=O)C2(c3ccc(F)cc3)CCCC2)cc1 [Compound 24] | > 50 | 99 | > 50 | 6.38 | 21 | 10 |  |  | 10 | 
N#Cc1ccc(CS(=O)(=O)NC(=O)C2(c3ccc(Br)cc3)CC2)cc1 [Compound 30] | 0.86 | 12 | > 50 | > 50 | 82 |  | 50 | 50 |  | PYL5 agonist potency and selectivity [1]: potent and relatively selective PYL5 agonists
N#Cc1ccc(CS(=O)(=O)NC(=O)C2(c3cccc(C#N)c3)CC2)cc1 [Compound 50] | 0.39 | 7 | 2.43 | 8.39 | 36 |  |  |  |  | PYL5 agonist potency and selectivity [1]: potent and relatively selective PYL5 agonists
O=C(NS(=O)(=O)Cc1ccc([N+](=O)[O-])cc1)C1(c2ccccc2)CCCCC1 [Compound 63] |  |  |  |  |  |  |  |  |  | remaining activity at 50 µM [1]: 107%; IC50 [1, 10]: > 50 µM; remaining activity at 50 µM [2]: 108%; IC50 [2, 11]: > 50 µM; remaining activity at 50 µM [3]: 96.6%; IC50 [3, 12]: > 50 µM
O=C(NS(=O)(=O)Cc1ccc(F)cc1)C1(c2ccccc2)CCCCC1 [Compound 64] |  |  |  |  |  |  |  |  |  | remaining activity at 50 µM [1]: 103%; IC50 [1, 10]: > 50 µM; remaining activity at 50 µM [2]: 109%; IC50 [2, 11]: > 50 µM; remaining activity at 50 µM [3]: 101%; IC50 [3, 12]: > 50 µM
N#Cc1ccc(CS(=O)(=O)NC(=O)C(c2ccccc2)c2ccccc2)cc1 [Compound 71, N-[(4-Cyanophenyl)methanesulfonyl]-2,2-diphenylacetamide] |  |  |  |  |  |  |  |  |  | remaining activity at 50 µM [1]: 102%; IC50 [1, 10]: > 50 µM; remaining activity at 50 µM [2]: 96.9%; IC50 [2, 11]: > 50 µM; remaining activity at 50 µM [3]: 96.8%; IC50 [3, 12]: > 50 µM
N#Cc1ccc(CS(=O)(=O)NC(=O)C(c2ccc(F)cc2)c2ccc(F)cc2)cc1 [Compound 72, N-[(4-Cyanophenyl)methanesulfonyl]-2,2-bis(4-fluorophenyl)acetamide] |  |  |  |  |  |  |  |  |  | remaining activity at 50 µM [1]: 102%; IC50 [1, 10]: > 50 µM; remaining activity at 50 µM [2]: 95.1%; IC50 [2, 11]: > 50 µM; remaining activity at 50 µM [3]: 98.5%; IC50 [3, 12]: > 50 µM
N#Cc1ccc(CS(=O)(=O)NC(=O)C(C2CCCCC2)C2CCCCC2)cc1 [Compound 73, N-[(4-Cyanophenyl)methanesulfonyl]-2,2-cyclohexylacetamide] |  |  |  |  |  |  |  |  |  | remaining activity at 50 µM [1]: 110%; IC50 [1, 10]: > 50 µM; remaining activity at 50 µM [2]: 91%; IC50 [2, 11]: > 50 µM; remaining activity at 50 µM [3]: 66.1%; IC50 [3, 12]: > 50 µM

From patent US10757937B2, “Sulfonamides that activate ABA receptors” (The Regents of the University of California, priority 2014, dated 2020)
